{"source": "paper PMC3508153", "about": "(Journal of medicinal chemistry, 2012)", "key": {"[1]": {"assay": "In vivo PK after oral administration in rats, incl. brain and plasma levels", "conditions": "rat, oral 10 mg/kg; for Vd: sodium salt; for Brain: brain harvested at or near Tmax; for Plasma: plasma harvested at or near Tmax"}, "[2]": {"assay": "in vivo", "conditions": "rat, plasma, po, 10 mg/kg"}, "[3]": {"assay": "in vivo", "conditions": "rat, plasma, ip, 10 mg/kg"}, "[4]": {"assay": "in vivo", "conditions": "rat, plasma, iv, 2 mg/kg"}}, "data": [{"smiles": "O=C(O)c1cc(-c2cccc(COc3ccc4c(=O)n(C5CC5)sc4c3)c2)ccc1Cl", "note": "[Compound 3e, 4-Chloro-3'-((2-cyclopropyl-3-oxo-2,3-dihydrobenzo[d]isothiazol-6-yloxy)methyl)biphenyl-3-carboxylic acid]", "values": [{"measurement": "Vd", "setting": "[1]", "result": 4.1, "unit": "mL"}, {"measurement": "Brain", "setting": "[1]", "result": "0.03 ± 0.01", "unit": "µM"}, {"measurement": "Plasma", "setting": "[1]", "result": "0.8 ± 0.2", "unit": "µM"}, {"measurement": "AUC(0-t)", "setting": "[2]", "result": 61.5, "unit": "µM·h"}]}, {"smiles": "O=C(O)c1cc(-c2cccc(-c3ccc4c(c3)CN(C3CCCC3)C4=O)c2)ccc1Cl", "note": "[Compound 24, 4-Chloro-3'-(2-cyclopentyl-1-oxoisoindolin-5-yl)biphenyl-3-carboxylic acid]", "values": [{"measurement": "Vd", "setting": "[1]", "result": 96.2, "unit": "mL"}, {"measurement": "AUC(0-t)", "setting": "[2]", "result": 2.67, "unit": "µM·h"}, {"measurement": "AUC(0-t)", "setting": "[3]", "result": 3.23, "unit": "µM·h"}]}, {"smiles": "O=C(O)c1cc(-c2cccc(COc3ccc4c(c3)CN(C3CCCC3)C4=O)c2)ccc1O", "note": "[Compound 15b, 3'-((2-Cyclopentyl-1-oxoisoindolin-5-yloxy)methyl)-4-hydroxybiphenyl-3-carboxylic acid]", "values": [{"measurement": "AUC(0-t)", "setting": "[4]", "result": 2.57, "unit": "µM·h"}, {"measurement": "Vd", "setting": "[1]", "result": 28.0, "unit": "mL"}, {"measurement": "Brain", "setting": "[1]", "result": "0.0071 ± 0.0004", "unit": "µM"}, {"measurement": "Plasma", "setting": "[1]", "result": "0.21 ± 0.046", "unit": "µM"}, {"measurement": "AUC(0-t)", "setting": "[2]", "result": 7.1, "unit": "µM·h"}]}, {"smiles": "O=C(O)c1cc(-c2cccc(COc3ccc4c(c3)CN(C3CCCC3)C4=O)c2)ccc1Cl", "note": "[Compound 2]", "values": [{"measurement": "AUC(0-t)", "setting": "[4]", "result": 11.8, "unit": "µM·h"}, {"measurement": "AUC(0-t)", "setting": "[2]", "result": 42.5, "unit": "µM·h"}]}, {"smiles": "COc1ccc(C(=O)O)cc1-c1cccc(COc2ccc3c(c2)CN(C2CCCC2)C3=O)c1", "note": "[Compound 15a, 3'-((2-Cyclopentyl-1-oxoisoindolin-5-yloxy)methyl)-6-methoxybiphenyl-3-carboxylic acid]", "values": [{"measurement": "Vd", "setting": "[1]", "result": 10875.2, "unit": "mL"}, {"measurement": "Brain", "setting": "[1]", "result": "0.18 ± 0.01", "unit": "µM"}, {"measurement": "Plasma", "setting": "[1]", "result": "1.46 ± 0.29", "unit": "µM"}, {"measurement": "AUC(0-t)", "setting": "[2]", "result": 12, "unit": "µM·h"}]}]}
